Source: patent US11141455B2, “Peptide analogues with branched amino acid probe(s)” (priority 2014, dated 2021)
pEC50: −log10 of the molar value.

Key:
human GLP-2 receptor = target: T1, human GLP-2 receptor (Homo sapiens, UniProt O95838); test: cAMP production (HTRF) in CHO-K1 cells expressing GLP-2 receptor; type: cell-based; details: for Emax: CHO-K1, control peptide GLP-2 (1-34), read-out: Max efficacy in % of control peptide; for Emax / pEC50: cAMP; for pEC50: CHO-K1 human GLP-2 receptor
T1 construct: expressed in transfected cells; host or cells: CHO-K1 cells
T1 sequence (O95838 1-553): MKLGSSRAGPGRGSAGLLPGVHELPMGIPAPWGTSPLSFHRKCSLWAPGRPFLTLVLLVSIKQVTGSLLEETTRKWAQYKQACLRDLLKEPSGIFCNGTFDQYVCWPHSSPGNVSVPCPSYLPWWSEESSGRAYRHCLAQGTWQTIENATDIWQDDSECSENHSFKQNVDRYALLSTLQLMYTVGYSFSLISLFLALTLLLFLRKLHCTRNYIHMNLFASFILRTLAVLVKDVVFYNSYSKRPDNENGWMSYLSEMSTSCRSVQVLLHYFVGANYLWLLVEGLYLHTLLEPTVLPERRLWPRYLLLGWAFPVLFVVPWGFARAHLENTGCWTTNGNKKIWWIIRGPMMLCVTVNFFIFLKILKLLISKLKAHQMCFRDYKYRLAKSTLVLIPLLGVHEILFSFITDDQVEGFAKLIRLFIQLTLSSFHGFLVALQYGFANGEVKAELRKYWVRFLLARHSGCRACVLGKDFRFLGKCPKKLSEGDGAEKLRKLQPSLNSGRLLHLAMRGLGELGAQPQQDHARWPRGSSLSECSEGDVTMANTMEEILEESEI
Protocol: CHO-K1 cells expressing the human GLP-2 receptor grown in media without antibiotic were detached by gentle flushing with PBS-EDTA (5 mM EDTA), recovered by centrifugation and resuspended in assay buffer (KRH: 5 mM KCl, 1.25 mM MgSO4, 124 mM NaCl, 25 mM HEPES, 13.3 mM Glucose, 1.25 mM KH2PO4, 1.45 mM CaCl2), 0.5 g/l BSA).
12 μl of cells were mixed with 12 μl of the test compound (solubilized in PBS/0.5% BSA and finally diluted from a stock solution of 1 mM) at increasing concentrations in 96 wells plates and then incubated 30 min at room temperature. cAMP production was determined after addition of a lysis buffer and 1 hour incubation, by use of competitive immunoassay using cryptate-labeled anti-cAMP and d2-labeled cAMP (HTRF kit from CisBio) with Delta F percentage values calculated according to the manufacturer specification. Dose response curves were performed in parallel with test compounds, and reference compounds.
The HTRF technology is a titration assay based on a competition between labeled cAMP (exogenous) and cAMP produced by the cell after activation of the […]. The dynamic range of the assay was 3-4 fold meaning that the linear range (which enables conversion from raw data to nM of cAMP) is within that range. […] All experiments were conducted in the presence of the non-selective phosphodiesterase inhibitor IBMX (1 mM in final concentration).
The test compounds were tested in a concentration range from […] to 10^−7M
Data is presented as mean values.

FPR2 receptor = target: T2, FPR2 receptor (Homo sapiens, UniProt P25090); details: cited from earlier work
T2 sequence (P25090 1-351): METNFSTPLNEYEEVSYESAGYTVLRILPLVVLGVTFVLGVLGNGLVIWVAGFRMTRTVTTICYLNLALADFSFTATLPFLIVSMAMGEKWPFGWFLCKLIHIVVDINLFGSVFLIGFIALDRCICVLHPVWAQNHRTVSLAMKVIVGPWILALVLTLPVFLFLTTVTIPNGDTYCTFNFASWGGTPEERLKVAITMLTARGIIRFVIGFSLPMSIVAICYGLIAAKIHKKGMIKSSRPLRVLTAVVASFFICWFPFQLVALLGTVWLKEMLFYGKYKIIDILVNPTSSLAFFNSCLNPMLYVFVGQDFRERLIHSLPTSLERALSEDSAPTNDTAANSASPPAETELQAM

human GLP-1 receptor = target: T3, human GLP-1 receptor (Homo sapiens, UniProt P43220); test: cAMP production (HTRF) in CHO-K1 cells expressing GLP-1 receptor; type: cell-based
T3 construct: expressed in transfected cells; host or cells: CHO-K1 cells
T3 sequence (P43220 24-463): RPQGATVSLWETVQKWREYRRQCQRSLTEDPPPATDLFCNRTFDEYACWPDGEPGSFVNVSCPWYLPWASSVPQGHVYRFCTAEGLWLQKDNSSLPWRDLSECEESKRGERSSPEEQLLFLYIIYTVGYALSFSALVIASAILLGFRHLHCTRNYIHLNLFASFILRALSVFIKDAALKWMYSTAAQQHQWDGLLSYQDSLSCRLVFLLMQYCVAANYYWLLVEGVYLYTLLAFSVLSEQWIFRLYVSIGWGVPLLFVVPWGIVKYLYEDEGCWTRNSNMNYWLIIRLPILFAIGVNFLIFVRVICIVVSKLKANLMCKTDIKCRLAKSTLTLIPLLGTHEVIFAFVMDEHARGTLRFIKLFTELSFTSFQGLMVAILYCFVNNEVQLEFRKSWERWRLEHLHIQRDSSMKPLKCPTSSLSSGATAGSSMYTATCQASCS

Row | Molecule | Emax (human GLP-2 receptor) | pEC50 (human GLP-2 receptor) | further results
1 | Ac-Ala-Met-Val-Ser-Glu-Phe-Leu-Lys-Gln-Ala-Trp-Phe-Ile-Glu-Asn-Glu-Glu-Gln-Glu-Tyr-Val-Gln-Thr-Val-Lys-OH (Ac-AMVSEFLKQAWFIENEEQEYVQTVK-OH; listed as Homo sapiens) [Control peptide 1] | – | – | agonism at the FPR2 receptor as described in the literature (FPR2 receptor): described as agonist to the FPR2 receptor- none of them as significantly potent
2 | CC[C@H](C)[C@H](NC(=O)[C@H](Cc1ccccc1)NC(=O)[C@H](CCC(=O)O)NC(=O)[C@H](CCCCN)NC(=O)[C@H](C)NC(=O)[C@H](C)NC(=O)[C@H](CCC(N)=O)NC(=O)CNC(=O)[C@H](CCC(=O)O)NC(=O)[C@H](CC(C)C)NC(=O)[C@H](Cc1ccc(O)cc1)NC(=O)[C@H](CO)NC(=O)[C@H](CO)NC(=O)[C@@H](NC(=O)[C@H](CC(=O)O)NC(=O)[C@H](CO)NC(=O)[C@@H](NC(=O)[C@H](Cc1ccccc1)NC(=O)[C@@H](NC(=O)CNC(=O)[C@H](CCC(=O)O)NC(=O)CNC(=O)[C@H](Cc1c[nH]cn1)NC(C)=O)[C@@H](C)O)[C@@H](C)O)C(C)C)C(=O)N[C@@H](C)C(=O)N[C@@H](Cc1c[nH]c2ccccc12)C(=O)N[C@@H](CC(C)C)C(=O)N[C@H](C(=O)N[C@@H](CCCCN)C(=O)NCC(=O)N[C@@H](CCCNC(=N)N)C(=O)NCC(=O)N[C@@H](CCCCNC(=O)[C@H](CCCCN)NC(=O)[C@H](CCCCN)NC(C)=O)C(N)=O)C(C)C [Analogue 2] | – | – | pEC50 (human GLP-1 receptor): 10.40; Emax (human GLP-1 receptor; CHO-K1, read-out: Max efficacy in % of control peptide): 102%
3 | Ac-Ala-Met-Val-Ser-Glu-Phe-Leu-Lys-Gln-Ala-Trp-NH2 (Ac-AMVSEFLKQAW-NH2; listed as Homo sapiens) [Control peptide 2] | – | – | agonism at the FPR2 receptor as described in the literature (FPR2 receptor): described as agonist to the FPR2 receptor- none of them as significantly potent
4 | CC[C@H](C)[C@H](NC(=O)[C@H](Cc1ccccc1)NC(=O)[C@H](CC(=O)O)NC(=O)[C@H](CCCNC(=N)N)NC(=O)[C@H](C)NC(=O)[C@H](C)NC(=O)[C@H](CC(C)C)NC(=O)[C@H](CC(N)=O)NC(=O)[C@H](CC(=O)O)NC(=O)[C@H](CC(C)C)NC(=O)[C@@H](NC(=O)[C@@H](NC(=O)[C@H](CC(N)=O)NC(=O)[C@H](CCSC)NC(=O)[C@H](CCC(=O)O)NC(=O)[C@H](CC(=O)O)NC(=O)[C@H](CO)NC(=O)[C@H](Cc1ccccc1)NC(=O)[C@H](CO)NC(=O)CNC(=O)[C@H](CC(=O)O)NC(=O)[C@H](C)NC(=O)[C@@H](N)Cc1c[nH]cn1)[C@@H](C)O)[C@@H](C)CC)C(=O)N[C@@H](CC(N)=O)C(=O)N[C@@H](Cc1c[nH]c2ccccc12)C(=O)N[C@@H](CC(C)C)C(=O)N[C@H](C(=O)N[C@@H](CCC(N)=O)C(=O)N[C@H](C(=O)N[C@@H](CCCCN)C(=O)N[C@H](C(=O)N[C@H](C(=O)N[C@@H](CC(=O)O)C(=O)N[C@@H](CCCNC(=N)N)C(=O)O)[C@@H](C)O)[C@@H](C)CC)[C@@H](C)O)[C@@H](C)CC [GLP-2 (1-34), reference compound] | – | – | Hill Slope (human GLP-2 receptor; cAMP dose response curve): 0.78

Second part, led by results:

Row | Emax (human GLP-2 receptor) | pEC50 (human GLP-2 receptor) | Molecule | further results
5 | 95.1% | 8.05 | CC[C@H](C)[C@H](NC(=O)[C@H](Cc1ccccc1)NC(=O)[C@H](CC(=O)O)NC(=O)[C@H](CCCNC(=N)N)NC(=O)[C@H](C)NC(=O)[C@H](C)NC(=O)[C@H](CC(C)C)NC(=O)[C@H](CC(N)=O)NC(=O)[C@H](CC(=O)O)NC(=O)[C@H](CC(C)C)NC(=O)[C@@H](NC(=O)[C@@H](NC(=O)[C@H](CC(N)=O)NC(=O)[C@H](CCSC)NC(=O)[C@H](CCC(=O)O)NC(=O)[C@H](CC(=O)O)NC(=O)[C@H](CO)NC(=O)[C@H](Cc1ccccc1)NC(=O)[C@H](CO)NC(=O)CNC(=O)[C@H](CC(=O)O)NC(=O)[C@@H](C)NC(=O)[C@H](Cc1c[nH]cn1)NC(C)=O)[C@@H](C)O)[C@@H](C)CC)C(=O)N[C@@H](CC(N)=O)C(=O)N[C@@H](Cc1c[nH]c2ccccc12)C(=O)N[C@@H](CC(C)C)C(=O)N[C@H](C(=O)N[C@@H](CCC(N)=O)C(=O)N[C@H](C(=O)N[C@@H](CCCCN)C(=O)N[C@H](C(=O)N[C@H](C(=O)N[C@@H](CC(=O)O)C(=O)N[C@@H](CCCCNC(=O)[C@H](CCCCN)NC(=O)[C@H](CCCCN)NC(C)=O)C(N)=O)[C@@H](C)O)[C@@H](C)CC)[C@@H](C)O)[C@@H](C)CC [Analogue 5] | –
6 | 102% | 8.23 | CC[C@H](C)[C@H](NC(=O)[C@H](Cc1ccccc1)NC(=O)[C@H](CC(=O)O)NC(=O)[C@H](CCCNC(=N)N)NC(=O)[C@H](C)NC(=O)[C@H](C)NC(=O)[C@H](CC(C)C)NC(=O)[C@H](CC(N)=O)NC(=O)[C@H](CC(=O)O)NC(=O)[C@H](CC(C)C)NC(=O)[C@@H](NC(=O)[C@@H](NC(=O)[C@H](CC(N)=O)NC(=O)[C@H](CCSC)NC(=O)[C@H](CCC(=O)O)NC(=O)[C@H](CC(=O)O)NC(=O)[C@H](CO)NC(=O)[C@H](Cc1ccccc1)NC(=O)[C@H](CO)NC(=O)CNC(=O)[C@H](CC(=O)O)NC(=O)CNC(=O)[C@H](Cc1c[nH]cn1)NC(C)=O)[C@@H](C)O)[C@@H](C)CC)C(=O)N[C@@H](CC(N)=O)C(=O)N[C@@H](Cc1c[nH]c2ccccc12)C(=O)N[C@@H](CC(C)C)C(=O)N[C@H](C(=O)N[C@@H](CCC(N)=O)C(=O)N[C@H](C(=O)N[C@@H](CCCCN)C(=O)N[C@H](C(=O)N[C@H](C(=O)N[C@@H](CC(=O)O)C(=O)N[C@@H](CCCCNC(=O)[C@H](CCCCN)NC(=O)[C@H](CCCCN)NC(C)=O)C(N)=O)[C@@H](C)O)[C@@H](C)CC)[C@@H](C)O)[C@@H](C)CC [Analogue 4] | –
7 | 101% | 8.47 | CC[C@H](C)[C@H](NC(=O)[C@H](Cc1ccccc1)NC(=O)[C@H](CC(=O)O)NC(=O)[C@H](CCCNC(=N)N)NC(=O)[C@H](C)NC(=O)[C@H](C)NC(=O)[C@H](CC(C)C)NC(=O)[C@H](CC(N)=O)NC(=O)[C@H](CC(=O)O)NC(=O)[C@H](CC(C)C)NC(=O)[C@@H](NC(=O)[C@@H](NC(=O)[C@H](CC(N)=O)NC(=O)[C@H](CCSC)NC(=O)[C@H](CCC(=O)O)NC(=O)[C@H](CC(=O)O)NC(=O)[C@H](CO)NC(=O)[C@H](Cc1ccccc1)NC(=O)[C@H](CO)NC(=O)CNC(=O)[C@H](CC(=O)O)NC(=O)[C@H](C)NC(=O)[C@H](Cc1c[nH]cn1)NC(C)=O)[C@@H](C)O)[C@@H](C)CC)C(=O)N[C@@H](CC(N)=O)C(=O)N[C@@H](Cc1c[nH]c2ccccc12)C(=O)N[C@@H](CC(C)C)C(=O)N[C@H](C(=O)N[C@@H](CCC(N)=O)C(=O)N[C@H](C(=O)N[C@@H](CCCCN)C(=O)N[C@H](C(=O)N[C@H](C(=O)N[C@@H](CC(=O)O)C(=O)N[C@@H](CCCCNC(=O)[C@H](CCCCN)NC(=O)[C@H](CCCCN)NC(C)=O)C(N)=O)[C@@H](C)O)[C@@H](C)CC)[C@@H](C)O)[C@@H](C)CC [Analogue 3] | –
